{"source": "patent US8815807B2", "about": "“Peptides and peptide compositions having osteoinductive activity” (President and Fellows of Harvard College, priority 2008, dated 2014)", "assay_type_in_all_cases": "cell-based, human", "key": {"hMSC cells": {"tested_on": "hMSC cells", "assay": "Alkaline phosphatase (AP) in cells contacted with peptide-displaying clones (tertiary screen)", "conditions": "for induction of osteoblastic marker enzyme alkaline phosphatase: additional screening of clones", "experimental": "A tertiary screen of the identified peptides was performed. The effect of each peptide on target cells was determined by measuring amounts of osteoblastic marker alkaline phosphatase (AP). Clonally purified individual isolates, or sibling pools of multiple isolates, were tested using the secondary and tertiary screens.\nIndividual preparations of each bacterial peptide-bearing clone to be tested were induced to express peptides, and were heat-devitalized in boiled water, to kill the peptide-displaying bacteria. Fifty microliters of heat-devitalized bacterial suspension was poured into each well of a 96-well plate containing agar, and the plate was centrifuged at 2000 rpm to embed bacteria in the surface of the agar.\nClones were further tested to quantify amount of stimulation of alkaline phosphatase (AP) activity in contacted cells. […] DNA from this clone that stimulated AP expression was isolated and was sequenced, and the DNA sequence was used to obtain amino acid sequence VFLRGNNSGGRS (SEQ ID NO: 2). This amino acid sequence appears not to have been previously reported.\nOsteoinductive peptides with activity that stimulated osteoblasts include: VFLRGNNSGGRS (SEQ ID NO:2), GKIHRHRGQAVE (SEQ ID NO: 3), HIRQMPVRAGLS (SEQ ID NO: 4), RQGVGSNGXIQK (SEQ ID NO: 5), ESHCLLGISCVL (SEQ ID NO: 6), QQLQQNVILET (SEQ ID NO: 7), RSKLVEFRTTG (SEQ ID NO: 8), RNWRMSRRGGM (SEQ ID NO: 9), CVRGRGRMAGSV (SEQ ID NO: 10), ITRGELATVRRS (SEQ ID NO: 11), LRLGVGMGRTC (SEQ ID NO: 12), ERFAGNRNQLQ (SEQ ID NO: 13), GGLGSVGWYWA (SEQ ID NO: 14), GCGKERGRRALK (SEQ ID NO: 15), GQERLWAFRWVP (SEQ ID NO: 16), RGVLRVGTGRSE (SEQ ID NO: 17), ITRGELATVRRS (SEQ ID NO: 18), RPALRLGLIGPS (SEQ ID NO: 19), TRTSVDAPIRX (SEQ ID NO: 20), SKALRGVGSVAS (SEQ ID NO: 21), and RRGQDRGHEPK (SEQ ID NO: 22)."}, "MG63 cells [1]": {"tested_on": "MG63 cells", "assay": "Cellular ATP in MG63 cells on streptavidin-coated wells treated with biotinylated peptide", "conditions": "MG63 1,000 cells/well, 120 hours after seeding, 50-3200 pmole/well, FIG. 4, versus biotin only", "experimental": "(§1) Cell growth and osteogenic inducing potential of each of the preparations of the biotinylated linear and the cyclic peptides was determined. The osteogenic potential of each peptide was analyzed by quantifying cellular ATP and alkaline phosphatase (AP) activity of osteoblast cells.\n(§2) Peptides were added to the wells in titrated amounts (50 pmole/well, 100 pmole/well, 200 pmole/well, 400 pmole/well, 800 pmole/well, 1600 pmole/well, or 3200 pmole/well) and were immobilized on streptavidin-coated plastic well plates (384 wells per plate). The biotin-binding capacity of the plates was 50 pmole/well. Each well was washed to remove unbound biotinylated peptides. […] MG63 cells (1,000 cells/well) were inoculated into each well.\n(§3) ATP (RFU/well) was measured at each of 24 hours and 120 hours after cells were seeded, and alkaline phosphatase (AP, RFU standardized by cell number) activity was measured 120 hours after cells were seeded."}, "MG63 cells [2]": {"tested_on": "MG63 cells", "assay": "Alkaline phosphatase activity of MG63 cells on streptavidin-coated wells treated with biotinylated peptide", "conditions": "MG63 1,000 cells/well, 120 hours after seeding, 50-3200 pmole/well, FIG. 5, versus biotin only", "experimental": "as §1, §2, §3"}}, "note": "Positions of bridges follow the written chain, without caps; N, C: chain ends. No end group written: not given here.", "data": [{"substance": "ERFAGNRNQLQ (The protein was designed and synthesized) [SEQ ID NO: 13]", "values": [{"measurement": "induction of osteoblastic marker enzyme alkaline phosphatase", "setting": "hMSC cells", "result": "induced osteoblastic marker enzyme alkaline phosphatase"}]}, {"substance": "GEN/cyclic: biotinylated cyclic ESHCLLGISCVL (SEQ ID NO: 6), three mini-PEG repeats, synthesized by GEN (disulfide 4-10 (inferred); also: biotin, three mini-PEG repeats, attachment end not given here)", "values": [{"measurement": "cellular ATP amounts / cell growth, 120 hours", "setting": "MG63 cells [1]", "result": "stimulated ATP production and cellular growth"}, {"measurement": "alkaline phosphatase (AP) activity, 120 hours", "setting": "MG63 cells [2]", "result": "induced greater alkaline phosphatase activity than the controls"}]}, {"substance": "RPALRLGLIGPS (The protein was designed and synthesized) [SEQ ID NO: 19]", "values": [{"measurement": "induction of osteoblastic marker enzyme alkaline phosphatase", "setting": "hMSC cells", "result": "induced osteoblastic marker enzyme alkaline phosphatase"}]}, {"substance": "NEP/linear: biotinylated linear ESHCLLGISCVL (SEQ ID NO: 6), 15 atom-PEG, synthesized by NEP (cysteine pairing not given here; also: biotin, 15 atom-PEG, attachment end not given here)", "values": [{"measurement": "cellular ATP amounts / cell growth, 120 hours", "setting": "MG63 cells [1]", "result": "stimulated ATP production and cellular growth"}, {"measurement": "alkaline phosphatase (AP) activity, 120 hours", "setting": "MG63 cells [2]", "result": "induced greater alkaline phosphatase activity than the controls"}]}, {"substance": "RNWRMSRRGGM (The protein was designed and synthesized) [SEQ ID NO: 9]", "values": [{"measurement": "induction of osteoblastic marker enzyme alkaline phosphatase", "setting": "hMSC cells", "result": "induced osteoblastic marker enzyme alkaline phosphatase"}]}, {"substance": "RGVLRVGTGRSE (The protein was designed and synthesized) [SEQ ID NO: 17]", "values": [{"measurement": "induction of osteoblastic marker enzyme alkaline phosphatase", "setting": "hMSC cells", "result": "induced osteoblastic marker enzyme alkaline phosphatase"}]}, {"substance": "VFLRGNNSGGRS (The protein was designed and synthesized) [SEQ ID NO: 2]", "values": [{"measurement": "induction of osteoblastic marker enzyme alkaline phosphatase", "setting": "hMSC cells", "result": "induced osteoblastic marker enzyme alkaline phosphatase"}, {"measurement": "AP expression compared with control cells contacted with empty vector", "setting": "hMSC cells; clone-contacted cells", "result": "an order of magnitude more AP expression"}]}, {"substance": "ESHCLLGISCVL (The protein was designed and synthesized) [SEQ ID NO: 6, osteopontin-like peptide]", "values": [{"measurement": "induction of osteoblastic marker enzyme alkaline phosphatase", "setting": "hMSC cells", "result": "induced osteoblastic marker enzyme alkaline phosphatase"}, {"measurement": "cellular ATP amounts / cell growth, 120 hours", "setting": "MG63 cells [1]", "result": "induced cell growth"}, {"measurement": "alkaline phosphatase (AP) activity, 120 hours", "setting": "MG63 cells [2]", "result": "production of osteogenic marker AP"}]}, {"substance": "RSKLVEFRTTG (The protein was designed and synthesized) [SEQ ID NO: 8]", "values": [{"measurement": "induction of osteoblastic marker enzyme alkaline phosphatase", "setting": "hMSC cells", "result": "induced osteoblastic marker enzyme alkaline phosphatase"}]}, {"substance": "TRTSVDAPIRX [SEQ ID NO: 20]", "values": [{"measurement": "induction of osteoblastic marker enzyme alkaline phosphatase", "setting": "hMSC cells", "result": "induced osteoblastic marker enzyme alkaline phosphatase"}]}, {"substance": "QQLQQNVILET (The protein was designed and synthesized) [SEQ ID NO: 7]", "values": [{"measurement": "induction of osteoblastic marker enzyme alkaline phosphatase", "setting": "hMSC cells", "result": "induced osteoblastic marker enzyme alkaline phosphatase"}]}, {"substance": "RRGQDRGHEPK (The protein was designed and synthesized) [SEQ ID NO: 22]", "values": [{"measurement": "induction of osteoblastic marker enzyme alkaline phosphatase", "setting": "hMSC cells", "result": "induced osteoblastic marker enzyme alkaline phosphatase"}]}, {"substance": "RQGVGSNGXIQK [SEQ ID NO: 5]", "values": [{"measurement": "induction of osteoblastic marker enzyme alkaline phosphatase", "setting": "hMSC cells", "result": "induced osteoblastic marker enzyme alkaline phosphatase"}]}, {"substance": "CVRGRGRMAGSV (The protein was designed and synthesized) [SEQ ID NO: 10]", "values": [{"measurement": "induction of osteoblastic marker enzyme alkaline phosphatase", "setting": "hMSC cells", "result": "induced osteoblastic marker enzyme alkaline phosphatase"}]}, {"substance": "SKALRGVGSVAS (The protein was designed and synthesized) [SEQ ID NO: 21]", "values": [{"measurement": "induction of osteoblastic marker enzyme alkaline phosphatase", "setting": "hMSC cells", "result": "induced osteoblastic marker enzyme alkaline phosphatase"}]}, {"substance": "ITRGELATVRRS (The protein was designed and synthesized) [SEQ ID NO: 11]", "values": [{"measurement": "induction of osteoblastic marker enzyme alkaline phosphatase", "setting": "hMSC cells", "result": "induced osteoblastic marker enzyme alkaline phosphatase"}]}, {"substance": "GGLGSVGWYWA (The protein was designed and synthesized) [SEQ ID NO: 14]", "values": [{"measurement": "induction of osteoblastic marker enzyme alkaline phosphatase", "setting": "hMSC cells", "result": "induced osteoblastic marker enzyme alkaline phosphatase"}]}, {"substance": "HIRQMPVRAGLS (The protein was designed and synthesized) [SEQ ID NO: 4]", "values": [{"measurement": "induction of osteoblastic marker enzyme alkaline phosphatase", "setting": "hMSC cells", "result": "induced osteoblastic marker enzyme alkaline phosphatase"}]}, {"substance": "GEN/linear: biotinylated linear ESHCLLGISCVL (SEQ ID NO: 6), three mini-PEG repeats, synthesized by GEN (cysteine pairing not given here; also: biotin, three mini-PEG repeats, attachment end not given here)", "values": [{"measurement": "cellular ATP amounts / cell growth, 120 hours", "setting": "MG63 cells [1]", "result": "stimulated ATP production and cellular growth"}, {"measurement": "cellular ATP amounts / cell growth, 120 hours", "setting": "MG63 cells [1]; listed as linear peptides synthesized by GEN", "result": "greater ATP amounts than those in wells treated with any of the other peptides"}, {"measurement": "alkaline phosphatase (AP) activity, 120 hours", "setting": "MG63 cells [2]", "result": "induced greater alkaline phosphatase activity than the controls"}]}, {"substance": "GKIHRHRGQAVE (The protein was designed and synthesized) [SEQ ID NO: 3]", "values": [{"measurement": "induction of osteoblastic marker enzyme alkaline phosphatase", "setting": "hMSC cells", "result": "induced osteoblastic marker enzyme alkaline phosphatase"}]}, {"substance": "GQERLWAFRWVP (The protein was designed and synthesized) [SEQ ID NO: 16]", "values": [{"measurement": "induction of osteoblastic marker enzyme alkaline phosphatase", "setting": "hMSC cells", "result": "induced osteoblastic marker enzyme alkaline phosphatase"}]}, {"substance": "LRLGVGMGRTC (The protein was designed and synthesized) [SEQ ID NO: 12]", "values": [{"measurement": "induction of osteoblastic marker enzyme alkaline phosphatase", "setting": "hMSC cells", "result": "induced osteoblastic marker enzyme alkaline phosphatase"}]}, {"substance": "NEP/cyclic: biotinylated cyclic ESHCLLGISCVL (SEQ ID NO: 6), 15 atom-PEG, synthesized by NEP (disulfide 4-10 (inferred); also: biotin, 15 atom-PEG, attachment end not given here)", "values": [{"measurement": "cellular ATP amounts / cell growth, 120 hours", "setting": "MG63 cells [1]", "result": "stimulated ATP production and cellular growth"}, {"measurement": "alkaline phosphatase (AP) activity, 120 hours", "setting": "MG63 cells [2]", "result": "induced greater alkaline phosphatase activity than the controls"}]}, {"substance": "GCGKERGRRALK (The protein was designed and synthesized) [SEQ ID NO: 15]", "values": [{"measurement": "induction of osteoblastic marker enzyme alkaline phosphatase", "setting": "hMSC cells", "result": "induced osteoblastic marker enzyme alkaline phosphatase"}]}]}
